Results as given in publication PMC12394658, “Discovery of Zharp1-163 as a dual inhibitor of ferroptosis and necroptosis for the treatment of inflammatory disorders and kidney injury” (Cell Death Discovery, 2025).

Key:
TSSK1 = target: T1, TSSK1 (Homo sapiens, UniProt Q9BXA7); assay: biochemical; set-up: Kinase selectivity panel of 81 human kinases, ADP-Glo or HTRF, per cent inhibition at 1 uM
T1 construct: gene TSSK1B
Method: (§1) We next sought to determine the binding affinity of Zharp1-163 for RIPK1 or RIPK3 via a binding assay (Fig. 4A). […] Further, we evaluated the selectivity of Zharp1-163 against a panel of 81 kinases (at 1000 nM). […] To elucidate the binding interactions between Zharp1-163 and RIPK1 kinase, we conducted molecular docking studies using the RIPK1 crystal structure (PDB ID: 4NEU). The predicted binding conformations and interaction patterns between Zharp1-163 and the RIPK1 kinase domain are presented in Fig. 4D, E. Like the cocrystallized ligand in the 4NEU crystal complex, Zharp1-163 was predicted to act as a typical type II kinase inhibitor, interacting with the DLG (Asp156-Leu157-Gly158)-out conformation of RIPK1 (Fig. 4D, E). The 2-aminoimidazo [1,2-a] pyridine moiety of Zharp1-163 formed hydrogen bonds with Met95 in the hinge region. Furthermore, the carboxylate group of Zharp1-163 established hydrogen bonds with Asp156 in the DLG-out region. Additionally, the saturated ring of Zharp1-163 was deeply embedded within the hydrophobic allosteric pocket formed by the residues Met66, Met67, Leu70, Val76, Leu129, and Leu159, which is created by the DLG-out conformation in RIPK1 (Fig. 4D, E).  Fig. 4 Zharp1-163 is a selective inhibitor of RIPK1 kinase activity. A Binding affinity curve of Zharp1-163 with RIPK1 and RIPK3. B In an in vitro kinase activity assay, recombinant RIPK1 was incubated with Zharp1-163, after which RIPK1 kinase activity was determined by measuring ATP levels via a luciferase reporter assay system. […] Kinases are marked with dots, where the color of each kinase indicates the level of inhibition achieved by Zharp1-163. D Predicted binding conformation of Zharp1-163. E Schematic representation of the interaction patterns between Zharp1-163 and the key residues in the binding pocket of the RIPK1 kinase. […] NIH3T3-RIPK3 cells were pretreated with the indicated concentrations of Zharp1-163 for 2 h and then treated with AP20187 (100 nM) for 24 h. Cell viability was determined by measuring ATP levels. […] HeLa-MLKL (1–190) cells were pretreated with the indicated concentrations of Zharp1-163 for 2 h and subsequently treated with AP20187 (100 nM) for 24 h. Cell viability was determined by measuring ATP levels. H Viability of IFNβ-primed MEFs at 18 h after stimulation with poly(I:C) plus z-VAD and treatment with Zharp1-163 (10 μM). I Effects of different concentrations of Zharp1-163 on WT or RIPK1 KO HT-29 cells. Cell viability was determined by measuring ATP levels. The data are presented as the mean ± SD of triplicate samples.

SRC = SRC (Homo sapiens, UniProt P12931); assay: biochemical; set-up: Kinase selectivity panel of 81 human kinases, ADP-Glo or HTRF, per cent inhibition at 1 uM
Method: as §1

SGK = target: T2, SGK (Homo sapiens, UniProt O00141); assay: biochemical; set-up: Kinase selectivity panel of 81 human kinases, ADP-Glo or HTRF, per cent inhibition at 1 uM
T2 construct: gene SGK1
Method: as §1

MET = MET (Homo sapiens, UniProt P08581); assay: biochemical; set-up: Kinase selectivity panel of 81 human kinases, ADP-Glo or HTRF, per cent inhibition at 1 uM
Method: as §1

CDK2/CycE1 = CDK2/CycE1 (Homo sapiens, UniProt P24941); assay: biochemical; set-up: Kinase selectivity panel of 81 human kinases, ADP-Glo or HTRF, per cent inhibition at 1 uM
Method: as §1

CaMK1α = target: T3, CaMK1α (Homo sapiens, UniProt Q14012); assay: biochemical; set-up: Kinase selectivity panel of 81 human kinases, ADP-Glo or HTRF, per cent inhibition at 1 uM
T3 construct: gene CAMK1
Method: as §1

JAK3 = JAK3 (Homo sapiens, UniProt P52333); assay: biochemical; set-up: Kinase selectivity panel of 81 human kinases, ADP-Glo or HTRF, per cent inhibition at 1 uM
Method: as §1

PIK3CA = PIK3CA (Homo sapiens, UniProt P42336); assay: biochemical; set-up: Kinase selectivity panel of 81 human kinases, ADP-Glo or HTRF, per cent inhibition at 1 uM
Method: as §1

CDK1/CycE1 = CDK1/CycE1 (Homo sapiens, UniProt P06493); assay: biochemical; set-up: Kinase selectivity panel of 81 human kinases, ADP-Glo or HTRF, per cent inhibition at 1 uM
Method: as §1

SYK = SYK (Homo sapiens, UniProt P43405); assay: biochemical; set-up: Kinase selectivity panel of 81 human kinases, ADP-Glo or HTRF, per cent inhibition at 1 uM
Method: as §1

WEE1 = WEE1 (Homo sapiens, UniProt P30291); assay: biochemical; set-up: Kinase selectivity panel of 81 human kinases, ADP-Glo or HTRF, per cent inhibition at 1 uM
Method: as §1

PDGFRα = target: T4, PDGFRα (Homo sapiens, UniProt P16234); assay: biochemical; set-up: Kinase selectivity panel of 81 human kinases, ADP-Glo or HTRF, per cent inhibition at 1 uM
T4 construct: gene PDGFRA
Method: as §1

PIM1 = PIM1 (Homo sapiens, UniProt P11309); assay: biochemical; set-up: Kinase selectivity panel of 81 human kinases, ADP-Glo or HTRF, per cent inhibition at 1 uM
Method: as §1

RIPK1 = RIPK1 (Homo sapiens, UniProt Q13546); assay: ADP-Glo kinase assay with recombinant RIPK1 ([…] ATP, MBP substrate); binding curve also shown in Fig. 4A; type: biochemical

T2 sequence (O00141 whole entry): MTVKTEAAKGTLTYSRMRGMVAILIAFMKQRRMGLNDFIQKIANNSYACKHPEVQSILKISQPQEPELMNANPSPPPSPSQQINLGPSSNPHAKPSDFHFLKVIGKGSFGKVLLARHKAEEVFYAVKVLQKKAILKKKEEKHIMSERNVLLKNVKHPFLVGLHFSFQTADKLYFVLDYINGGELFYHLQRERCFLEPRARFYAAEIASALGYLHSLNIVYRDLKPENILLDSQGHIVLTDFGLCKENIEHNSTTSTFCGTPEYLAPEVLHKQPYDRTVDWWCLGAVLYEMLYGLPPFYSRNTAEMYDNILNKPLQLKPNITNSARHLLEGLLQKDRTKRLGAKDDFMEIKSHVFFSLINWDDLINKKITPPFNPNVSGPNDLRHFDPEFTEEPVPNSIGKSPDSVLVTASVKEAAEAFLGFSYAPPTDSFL
Chain of WEE1 (P30291 whole entry): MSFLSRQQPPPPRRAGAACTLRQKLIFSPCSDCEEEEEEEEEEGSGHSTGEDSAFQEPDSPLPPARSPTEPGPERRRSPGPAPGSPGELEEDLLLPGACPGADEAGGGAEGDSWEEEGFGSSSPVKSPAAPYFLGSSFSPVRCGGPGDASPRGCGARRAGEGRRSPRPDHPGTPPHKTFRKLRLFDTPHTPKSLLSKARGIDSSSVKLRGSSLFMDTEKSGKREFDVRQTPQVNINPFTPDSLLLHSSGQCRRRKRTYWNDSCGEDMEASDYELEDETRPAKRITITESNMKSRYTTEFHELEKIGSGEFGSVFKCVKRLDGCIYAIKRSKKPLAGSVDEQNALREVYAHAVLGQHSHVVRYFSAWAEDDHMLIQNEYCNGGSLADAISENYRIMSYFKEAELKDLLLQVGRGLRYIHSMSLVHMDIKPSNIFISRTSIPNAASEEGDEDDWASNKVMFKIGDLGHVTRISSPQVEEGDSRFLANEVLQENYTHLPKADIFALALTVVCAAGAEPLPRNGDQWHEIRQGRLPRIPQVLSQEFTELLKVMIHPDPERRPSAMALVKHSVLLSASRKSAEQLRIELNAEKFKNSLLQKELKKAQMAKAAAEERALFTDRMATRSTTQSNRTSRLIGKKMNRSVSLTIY
T4 sequence (P16234 whole entry): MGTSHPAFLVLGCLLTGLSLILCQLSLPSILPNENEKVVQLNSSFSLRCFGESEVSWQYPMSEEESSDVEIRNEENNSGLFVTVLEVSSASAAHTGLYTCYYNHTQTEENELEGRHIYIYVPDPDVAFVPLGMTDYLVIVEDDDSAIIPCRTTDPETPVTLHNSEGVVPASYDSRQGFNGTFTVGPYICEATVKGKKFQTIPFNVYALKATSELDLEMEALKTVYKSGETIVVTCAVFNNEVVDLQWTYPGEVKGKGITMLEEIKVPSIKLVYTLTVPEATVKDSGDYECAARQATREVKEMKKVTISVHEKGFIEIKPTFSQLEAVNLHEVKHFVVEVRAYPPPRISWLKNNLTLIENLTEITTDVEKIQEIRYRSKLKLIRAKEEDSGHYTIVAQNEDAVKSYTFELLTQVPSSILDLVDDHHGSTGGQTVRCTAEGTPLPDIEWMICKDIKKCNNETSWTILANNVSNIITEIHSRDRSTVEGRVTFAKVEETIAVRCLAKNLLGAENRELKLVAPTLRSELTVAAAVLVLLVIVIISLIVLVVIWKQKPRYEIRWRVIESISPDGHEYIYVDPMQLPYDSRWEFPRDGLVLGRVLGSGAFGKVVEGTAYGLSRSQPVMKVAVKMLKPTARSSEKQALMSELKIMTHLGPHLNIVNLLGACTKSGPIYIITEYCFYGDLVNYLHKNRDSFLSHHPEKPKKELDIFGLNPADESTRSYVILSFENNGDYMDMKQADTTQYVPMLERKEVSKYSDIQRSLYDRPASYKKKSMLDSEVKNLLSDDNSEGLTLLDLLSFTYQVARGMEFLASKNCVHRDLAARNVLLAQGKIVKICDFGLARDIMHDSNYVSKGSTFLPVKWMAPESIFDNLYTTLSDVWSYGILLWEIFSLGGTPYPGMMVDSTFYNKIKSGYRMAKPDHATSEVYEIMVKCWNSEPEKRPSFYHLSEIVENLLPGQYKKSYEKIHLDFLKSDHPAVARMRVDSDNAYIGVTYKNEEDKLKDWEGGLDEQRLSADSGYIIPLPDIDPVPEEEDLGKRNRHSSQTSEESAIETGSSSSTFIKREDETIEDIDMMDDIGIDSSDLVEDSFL
Chain of PIK3CA (P42336 whole entry): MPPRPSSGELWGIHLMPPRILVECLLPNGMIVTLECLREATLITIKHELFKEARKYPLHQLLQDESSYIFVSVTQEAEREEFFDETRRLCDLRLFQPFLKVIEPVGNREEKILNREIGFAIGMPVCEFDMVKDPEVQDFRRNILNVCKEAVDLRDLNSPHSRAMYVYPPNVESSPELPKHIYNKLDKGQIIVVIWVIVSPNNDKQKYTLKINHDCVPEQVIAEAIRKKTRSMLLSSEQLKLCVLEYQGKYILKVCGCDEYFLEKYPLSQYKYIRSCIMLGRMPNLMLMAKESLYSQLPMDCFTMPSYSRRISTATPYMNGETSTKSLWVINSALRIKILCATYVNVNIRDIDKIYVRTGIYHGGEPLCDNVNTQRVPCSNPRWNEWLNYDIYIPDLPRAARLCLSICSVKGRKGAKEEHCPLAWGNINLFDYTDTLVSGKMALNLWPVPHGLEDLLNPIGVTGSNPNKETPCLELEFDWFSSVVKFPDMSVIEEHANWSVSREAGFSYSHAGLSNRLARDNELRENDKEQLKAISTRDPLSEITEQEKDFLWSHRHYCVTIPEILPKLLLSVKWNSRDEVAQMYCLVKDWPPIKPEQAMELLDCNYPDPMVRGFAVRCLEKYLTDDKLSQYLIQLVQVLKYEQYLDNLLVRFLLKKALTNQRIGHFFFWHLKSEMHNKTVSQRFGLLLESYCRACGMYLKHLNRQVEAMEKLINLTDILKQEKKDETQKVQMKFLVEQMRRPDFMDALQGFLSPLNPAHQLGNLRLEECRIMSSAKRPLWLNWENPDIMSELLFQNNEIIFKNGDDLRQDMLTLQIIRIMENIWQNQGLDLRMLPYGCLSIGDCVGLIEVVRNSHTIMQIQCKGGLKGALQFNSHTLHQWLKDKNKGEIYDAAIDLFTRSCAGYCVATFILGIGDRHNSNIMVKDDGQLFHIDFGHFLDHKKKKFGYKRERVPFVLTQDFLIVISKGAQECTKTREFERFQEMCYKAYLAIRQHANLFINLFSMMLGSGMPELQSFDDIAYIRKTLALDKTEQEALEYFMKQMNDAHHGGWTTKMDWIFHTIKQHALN
Chain of PIK3CA (P27986 whole entry partner): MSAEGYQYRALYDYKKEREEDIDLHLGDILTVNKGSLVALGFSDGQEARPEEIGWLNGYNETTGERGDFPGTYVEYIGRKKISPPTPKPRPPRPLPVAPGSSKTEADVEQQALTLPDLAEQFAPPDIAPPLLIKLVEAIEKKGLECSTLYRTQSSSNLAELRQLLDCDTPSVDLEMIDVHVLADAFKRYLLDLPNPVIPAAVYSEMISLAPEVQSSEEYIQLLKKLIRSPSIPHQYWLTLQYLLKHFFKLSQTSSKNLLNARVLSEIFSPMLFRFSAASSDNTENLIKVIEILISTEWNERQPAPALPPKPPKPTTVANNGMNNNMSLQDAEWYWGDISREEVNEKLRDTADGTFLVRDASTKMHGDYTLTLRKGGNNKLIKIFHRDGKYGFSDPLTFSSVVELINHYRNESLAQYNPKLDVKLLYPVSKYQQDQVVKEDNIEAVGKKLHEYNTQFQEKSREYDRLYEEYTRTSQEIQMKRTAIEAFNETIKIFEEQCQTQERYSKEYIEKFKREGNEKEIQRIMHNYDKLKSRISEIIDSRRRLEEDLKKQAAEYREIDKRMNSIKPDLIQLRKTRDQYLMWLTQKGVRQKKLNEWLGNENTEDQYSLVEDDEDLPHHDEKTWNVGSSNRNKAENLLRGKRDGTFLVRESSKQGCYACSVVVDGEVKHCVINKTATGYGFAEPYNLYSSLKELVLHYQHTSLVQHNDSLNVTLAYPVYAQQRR
T1 sequence (Q9BXA7 whole entry): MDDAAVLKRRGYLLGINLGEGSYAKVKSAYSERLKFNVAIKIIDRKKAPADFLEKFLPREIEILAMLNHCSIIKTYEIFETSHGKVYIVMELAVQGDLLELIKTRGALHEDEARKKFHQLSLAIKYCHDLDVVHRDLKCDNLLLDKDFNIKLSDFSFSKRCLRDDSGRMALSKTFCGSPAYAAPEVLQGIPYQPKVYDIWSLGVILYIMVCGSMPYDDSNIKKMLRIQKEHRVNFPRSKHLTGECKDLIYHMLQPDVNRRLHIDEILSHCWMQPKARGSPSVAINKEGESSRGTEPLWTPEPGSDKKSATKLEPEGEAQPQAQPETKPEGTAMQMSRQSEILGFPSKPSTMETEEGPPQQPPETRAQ
Chain of SRC (P12931 whole entry): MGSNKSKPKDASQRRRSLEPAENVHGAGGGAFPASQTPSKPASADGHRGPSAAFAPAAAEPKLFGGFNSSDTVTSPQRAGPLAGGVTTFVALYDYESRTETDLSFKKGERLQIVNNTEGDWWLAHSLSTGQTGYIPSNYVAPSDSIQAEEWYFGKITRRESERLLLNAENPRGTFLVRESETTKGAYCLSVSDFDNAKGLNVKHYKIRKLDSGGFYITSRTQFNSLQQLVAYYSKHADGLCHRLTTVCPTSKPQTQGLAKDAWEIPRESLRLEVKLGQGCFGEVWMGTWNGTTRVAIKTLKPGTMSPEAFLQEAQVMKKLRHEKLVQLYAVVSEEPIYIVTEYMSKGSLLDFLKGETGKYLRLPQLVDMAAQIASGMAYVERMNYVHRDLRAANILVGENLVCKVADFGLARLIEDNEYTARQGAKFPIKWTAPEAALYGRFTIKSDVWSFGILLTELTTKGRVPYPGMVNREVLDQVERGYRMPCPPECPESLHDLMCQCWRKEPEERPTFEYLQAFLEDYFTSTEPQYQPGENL

Nc1cn2cc(-c3cnc4c(c3)N(C(=O)OC3CCCCC3)CCO4)ccc2n1 [Zharp1-163]
inhibition at 1 µM (TSSK1; replicate Data1): -0.22%
inhibition at 1 µM (TSSK1; replicate Data2): 2.05%
inhibition at 1 µM (SRC; replicate Data1): -5.44%
inhibition at 1 µM (SRC; replicate Data2): -0.43%
inhibition at 1 µM (SGK; replicate Data1): 2.39%
inhibition at 1 µM (SGK; replicate Data2): 0.81%
inhibition at 1 µM (MET; replicate Data1): 18.3%
inhibition at 1 µM (MET; replicate Data2): 3.81%
inhibition at 1 µM (CDK2/CycE1; replicate Data1): 3.25%
inhibition at 1 µM (CDK2/CycE1; replicate Data2): -0.65%
inhibition at 1 µM (CaMK1α; replicate Data1): -18.7%
inhibition at 1 µM (CaMK1α; replicate Data2): -6.35%
inhibition at 1 µM (JAK3; replicate Data1): -1.37%
inhibition at 1 µM (JAK3; replicate Data2): 7.33%
inhibition at 1 µM (PIK3CA; replicate Data1): 37.1%
inhibition at 1 µM (PIK3CA; replicate Data2): 35.8%
inhibition at 1 µM (CDK1/CycE1; replicate Data1): 5.77%
inhibition at 1 µM (CDK1/CycE1; replicate Data2): 6.95%
inhibition at 1 µM (SYK; replicate Data1): 5.12%
inhibition at 1 µM (SYK; replicate Data2): 4.56%
inhibition at 1 µM (WEE1; replicate Data1): 9.26%
inhibition at 1 µM (WEE1; replicate Data2): 4.33%
inhibition at 1 µM (PDGFRα; replicate Data1): -2.74%
inhibition at 1 µM (PDGFRα; replicate Data2): 4.62%
inhibition at 1 µM (PIM1; replicate Data1): 3.88%
inhibition at 1 µM (PIM1; replicate Data2): 7.34%
IC50 (RIPK1): ~406 nM
